Assay results from patent publication US20220089592A1, “IMIDAZO[1,2-A]PYRIDINYL DERIVATIVES AS IRAK4 INHIBITORS” (priority 2019, published 2022).

Experiments:
[1] = target: T1, IRAK4 (Homo sapiens, UniProt Q9NWZ3); experiment: 2-hour 10 μM ATP Biochemical Assay (MesoScale Detection format; IRAK4 phosphorylation of biotin labeled IRAK1 activation loop peptide); settings: IRAK4 MSD BIOCHEMICAL (10 μM ATP) IC50 (μM), 1 nM IRAK4, 2 hours
T1 sequence (Q9NWZ3 1-460): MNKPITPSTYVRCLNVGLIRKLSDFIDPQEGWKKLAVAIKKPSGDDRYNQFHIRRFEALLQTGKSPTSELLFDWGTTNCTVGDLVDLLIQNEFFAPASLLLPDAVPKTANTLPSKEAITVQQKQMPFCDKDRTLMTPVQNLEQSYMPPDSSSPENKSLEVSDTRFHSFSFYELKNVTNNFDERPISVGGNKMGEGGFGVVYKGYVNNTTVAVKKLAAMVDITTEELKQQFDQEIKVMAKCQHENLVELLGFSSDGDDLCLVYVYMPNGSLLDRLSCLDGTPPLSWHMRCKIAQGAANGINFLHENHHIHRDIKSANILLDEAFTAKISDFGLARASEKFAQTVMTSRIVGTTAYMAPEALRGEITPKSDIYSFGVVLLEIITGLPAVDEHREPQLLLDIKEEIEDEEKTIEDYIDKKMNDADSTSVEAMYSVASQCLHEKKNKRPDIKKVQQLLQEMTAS
Method in brief: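 Electrochemiluminescent MSD readout: after streptavidin capture, phosphothreonine on the biotin-labelled IRAK1 activation-loop peptide detected by rabbit antibody and Sulfo-Tag secondary. Phosphorylation ran 2 h with 10 μM ATP before EDTA quench.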

[2] = target: T1, IRAK4; experiment: 2-hour 1 mM ATP IRAK4 Biochemical assay (as above, but with 100 pM IRAK4 and 1 mM ATP); settings: IRAK4 MSD BIOCHEMICAL (1 mM ATP) IC50 (μM), 100 pM IRAK4, 2 hours
Method in brief: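 MSD electrochemiluminescence read-out: biotinylated peptide product bound to streptavidin plates, probed with anti-P-Thr rabbit antibody and Sulfo-Tag goat anti-rabbit. Kinase reaction used 1 mM ATP and 100 pM IRAK4 over 2 hours before EDTA quench.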

Compound `CCOc1cc2nc(C3CCOCC3)cn2cc1NC(=O)c1cc(F)n(C)n1` [Example 210, N-(7-ethoxy-2-(tetrahydro-2H-pyran-4-yl)imidazo[1,2-a]pyridin-6-yl)-5-fluoro-1-methyl-1H-pyrazole-3-carboxamide] has an IC50 [1] of 0.015 µM and an IC50 [2] of 0.038 µM.

`CCOc1cc2nc(C3CCOCC3)cn2cc1NC(=O)c1scc(C)c1OC` [Example 211, N-(7-ethoxy-2-(tetrahydro-2H-pyran-4-yl)imidazo[1,2-a]pyridin-6-yl)-3-methoxy-4-methylthiophene-2-carboxamide] was tested, and the IC50 [1] was 0.007 µM and the IC50 [2] was 0.022 µM.

With `CCOc1cc2nc(C3CCOCC3)cn2cc1NC(=O)c1ccccc1OC` [Example 213, N-(7-ethoxy-2-(tetrahydro-2H-pyran-4-yl)imidazo[1,2-a]pyridin-6-yl)-2-methoxybenzamide] the IC50 [1] was 0.005 µM and the IC50 [2] was 0.019 µM.

`CCOc1cc2nc(C3CCOCC3)cn2cc1NC(=O)c1cccc(C)c1F` [Example 214, N-(7-ethoxy-2-(tetrahydro-2H-pyran-4-yl)imidazo[1,2-a]pyridin-6-yl)-2-fluoro-3-methylbenzamide] gave an IC50 [1] of 0.003 µM and an IC50 [2] of 0.007 µM.

In the case of `CCOc1cc2nc(C3CCOCC3)cn2cc1NC(=O)c1cccc(OC)c1F` [Example 215, N-(7-ethoxy-2-(tetrahydro-2H-pyran-4-yl)imidazo[1,2-a]pyridin-6-yl)-2-fluoro-3-methoxybenzamide], the IC50 [1] is reported as 0.008 µM and the IC50 [2] is reported as 0.037 µM.

`CCOc1cc2nc(C3CCOCC3)cn2cc1NC(=O)c1ccccn1` [Example 216, N-(7-ethoxy-2-(tetrahydro-2H-pyran-4-yl)imidazo[1,2-a]pyridin-6-yl)picolinamide] was tested, and the IC50 [1] was 0.007 µM and the IC50 [2] was 0.023 µM.

`CCOc1cc2nc(C3CCOCC3)cn2cc1NC(=O)c1cccc(C(C)C)n1` [Example 218, N-(7-ethoxy-2-(tetrahydro-2H-pyran-4-yl)imidazo[1,2-a]pyridin-6-yl)-6-isopropylpicolinamide] gave an IC50 [1] of 0.001 µM and an IC50 [2] of 0.002 µM.

Work on `CCOc1cc2nc(C3CCOCC3)cn2cc1NC(=O)c1ccc(F)cn1` [Example 219, N-(7-ethoxy-2-(tetrahydro-2H-pyran-4-yl)imidazo[1,2-a]pyridin-6-yl)-5-fluoropicolinamide] yielded an IC50 [1] of 0.007 µM and an IC50 [2] of 0.055 µM.

In the case of `CCOc1cc2nc(C3CCOCC3)cn2cc1NC(=O)c1cccc(OC(C)C)n1` [Example 220, N-(7-ethoxy-2-(tetrahydro-2H-pyran-4-yl)imidazo[1,2-a]pyridin-6-yl)-6-isopropoxypicolinamide], the IC50 [1] is reported as 0.004 µM and the IC50 [2] is reported as 0.02 µM.

`CCOc1cc2nc(C3CCOCC3)cn2cc1NC(=O)c1scc2c1OCCO2` [Example 221, N-(7-ethoxy-2-(tetrahydro-2H-pyran-4-yl)imidazo[1,2-a]pyridin-6-yl)-2,3-dihydrothieno[3,4-b][1,4]dioxine-5-carboxamide] gave an IC50 [1] of 0.001 µM and an IC50 [2] of 0.011 µM.

`CCOc1cc2nc(C3CCOCC3)cn2cc1NC(=O)c1ccn2c1CCCC2` [Example 222, N-(7-ethoxy-2-(tetrahydro-2H-pyran-4-yl)imidazo[1,2-a]pyridin-6-yl)-5,6,7,8-tetrahydroindolizine-1-carboxamide] showed an IC50 [1] of 0.01 µM and an IC50 [2] of 0.041 µM.

`CCOc1cc2nc(C3CCOCC3)cn2cc1NC(=O)c1csc(C)n1` [Example 223, N-(7-ethoxy-2-(tetrahydro-2H-pyran-4-yl)imidazo[1,2-a]pyridin-6-yl)-2-methylthiazole-4-carboxamide] was tested, and the IC50 [1] was 0.004 µM and the IC50 [2] was 0.01 µM.

For `CCOc1cc2nc(C3CCOCC3)cn2cc1NC(=O)c1cccc(C)n1` [Example 224, N-(7-ethoxy-2-(tetrahydro-2H-pyran-4-yl)imidazo[1,2-a]pyridin-6-yl)-6-methylpicolinamide], the IC50 [1] was 0.001 µM and the IC50 [2] was 0.003 µM.

In the case of `CCOc1cc2nc(C3CCOCC3)cn2cc1NC(=O)c1ccn2c1CCC2` [Example 225, N-(7-ethoxy-2-(tetrahydro-2H-pyran-4-yl)imidazo[1,2-a]pyridin-6-yl)-2,3-dihydro-1H-pyrrolizine-7-carboxamide], the IC50 [1] is reported as 0.009 µM and the IC50 [2] is reported as 0.029 µM.

Work on `CCOc1cc2nc(C3CCOCC3)cn2cc1NC(=O)c1cccc(C(C)(F)F)n1` [Example 227, 6-(1,1-difluoroethyl)-N-(7-ethoxy-2-(tetrahydro-2H-pyran-4-yl)imidazo[1,2-a]pyridin-6-yl)picolinamide] yielded an IC50 [1] of 0.001 µM and an IC50 [2] of 0.001 µM.

Compound `CCOc1cc2nc(C3CCOCC3)cn2cc1NC(=O)c1cccc(C(F)F)c1` [Example 228, 3-(difluoromethyl)-N-(7-ethoxy-2-(tetrahydro-2H-pyran-4-yl)imidazo[1,2-a]pyridin-6-yl)benzamide] has an IC50 [1] of 0.013 µM and an IC50 [2] of 0.056 µM.

Work on `CCOc1cc2nc(C3CCOCC3)cn2cc1NC(=O)c1ccn(C(F)F)n1` [Example 230, 1-(difluoromethyl)-N-(7-ethoxy-2-(tetrahydro-2H-pyran-4-yl)imidazo[1,2-a]pyridin-6-yl)-1H-pyrazole-3-carboxamide] yielded an IC50 [1] of 0.001 µM and an IC50 [2] of 0.003 µM.

Work on `CCOc1cc2nc(C3CCOCC3)cn2cc1NC(=O)c1csc(C(F)(F)F)n1` [Example 231, N-(7-ethoxy-2-(tetrahydro-2H-pyran-4-yl)imidazo[1,2-a]pyridin-6-yl)-2-(trifluoromethyl)thiazole-4-carboxamide] yielded an IC50 [1] of 0.001 µM and an IC50 [2] of 0.007 µM.

`COCCCc1cn2cc(NC(=O)c3cccc(C(F)F)n3)ccc2n1` [Example 234, 6-(difluoromethyl)-N-(2-(3-methoxypropyl)imidazo[1,2-a]pyridin-6-yl)picolinamide] gave an IC50 [1] of 0.011 µM and an IC50 [2] of 0.049 µM.

`CCOc1cc2nc(C3CCOCC3)cn2cc1NC(=O)c1cccc(OC2CCC2)n1` [Example 236, 6-cyclobutoxy-N-(7-ethoxy-2-(tetrahydro-2H-pyran-4-yl)imidazo[1,2-a]pyridin-6-yl)picolinamide] gave an IC50 [1] of 0.006 µM and an IC50 [2] of 0.019 µM.

For `CCOc1cc2nc(C3CCOCC3)cn2cc1NC(=O)c1cccc(N(C)C)n1` [Example 237, 6-(dimethylamino)-N-(7-ethoxy-2-(tetrahydro-2H-pyran-4-yl)imidazo[1,2-a]pyridin-6-yl)picolinamide], the IC50 [1] was 0.001 µM and the IC50 [2] was 0.005 µM.

With `CCOc1cc2nc(C3CC3)cn2cc1NC(=O)c1cccc(C2CCOC2)n1` (centres unmarked) [Example 238, N-(2-cyclopropyl-7-ethoxyimidazo[1,2-a]pyridin-6-yl)-6-(tetrahydrofuran-3-yl)picolinamide] the IC50 [1] was 0.004 µM and the IC50 [2] was 0.015 µM.

`CCOc1cc2nc(C3CCOCC3)cn2cc1NC(=O)c1cccc(C(F)CF)n1` (centres unmarked) [Example 239, 6-(1,2-difluoroethyl)-N-(7-ethoxy-2-(tetrahydro-2H-pyran-4-yl)imidazo[1,2-a]pyridin-6-yl)picolinamide] gave an IC50 [1] of 0.002 µM and an IC50 [2] of 0.003 µM.

For `CCOc1cc2nc(C3CCOCC3)cn2cc1NC(=O)c1cnc2c(c1)CCO2` [Example 240, N-(7-ethoxy-2-(tetrahydro-2H-pyran-4-yl)imidazo[1,2-a]pyridin-6-yl)-2,3-dihydrofuro[2,3-b]pyridine-5-carboxamide], the IC50 [1] was 0.006 µM and the IC50 [2] was 0.019 µM.

In the case of `CCOc1cc2nc(C(C)(C)C#N)cn2cc1NC(=O)c1csc(C)n1` [Example 241, N-(2-(2-cyanopropan-2-yl)-7-ethoxyimidazo[1,2-a]pyridin-6-yl)-2-methylthiazole-4-carboxamide], the IC50 [1] is reported as 0.01 µM and the IC50 [2] is reported as 0.041 µM.
